Laboratory results published in US7109193B2, “Tricyclic diazepines tocolytic oxytocin receptor antagonists” (Wyeth, priority 2001, dated 2006).

Target: T1, human vasopressin V2 receptor subtype (Homo sapiens, UniProt P30518)
T1 construct: host or cells: CHO cells (pZeoSV vector)
Assay: Vasopressin binding in Chinese Hamster Ovary cell membranes expressing human vasopressin V2 subtype receptors
Conditions: 100 nM, CHO cell membranes, [3H]arginine vasopressin, values without parentheses
Method in brief: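 Radioligand displacement on membranes from CHO cells stably expressing human V2 receptor, 25 to 50 μg protein/well, in 50 mM Tris-HCl pH 7.4 with MgCl2, BSA and protease inhibitors. [^3H]arginine vasopressin (8 nM working solution) incubated 60 min at room temperature; bound label measured by filtration and scintillation counting.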

T1 sequence (P30518 whole entry): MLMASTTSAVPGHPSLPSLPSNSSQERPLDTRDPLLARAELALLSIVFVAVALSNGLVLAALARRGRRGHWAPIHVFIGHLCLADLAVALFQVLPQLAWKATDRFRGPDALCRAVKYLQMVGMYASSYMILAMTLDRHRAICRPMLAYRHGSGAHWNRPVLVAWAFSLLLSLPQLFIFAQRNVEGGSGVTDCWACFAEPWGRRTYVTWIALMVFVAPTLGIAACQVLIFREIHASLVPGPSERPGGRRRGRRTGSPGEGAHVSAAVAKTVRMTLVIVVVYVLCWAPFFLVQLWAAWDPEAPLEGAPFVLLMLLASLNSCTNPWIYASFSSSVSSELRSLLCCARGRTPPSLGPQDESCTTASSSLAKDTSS

Row | SMILES | inhibition at 0.1 µM [%]
1 | O=C(NCCN1CCCCC1)c1ccc2n1Cc1ccccc1N(C(=O)c1ccc(-c3cccc4ccccc34)cc1Cl)C2 [Example 160, 10-[2-Chloro-4-(1-naphthyl)benzoyl]-N-[2-(1-piperidinyl)ethyl]-10,11-dihydro-5H-pyrrolo[2,1-c][1,4]benzodiazepine-3-carboxamide] | 24
2 | C=CCN1CCN(C(=O)c2ccc3n2Cc2ccccc2N(C(=O)c2ccc(-c4cccc5ccccc45)cc2Cl)C3)CC1 [Example 229, (4-Allyl-1-piperazinyl){10-[2-chloro-4-(1-naphthyl)benzoyl]-10,11-dihydro-5H-pyrrolo[2,1-c][1,4]benzodiazepin-3-yl}methanone] | 27
3 | COc1cccc(-c2ccc(C(=O)N3Cc4ccc(C(=O)N(C)C5CCN(C)CC5)n4Cc4ccccc43)cc2C)c1 [Example 176, 10-[(3′-Methoxy-2-methyl[1,1′-biphenyl]-4-yl)carbonyl]-N-methyl-N-(1-methyl-4-piperidinyl)-10,11-dihydro-5H-pyrrolo[2,1-c][1,4]benzodiazepine-3-carboxamide] | 18
4 | COc1cccc(-c2ccc(C(=O)N3Cc4ccc(C(=O)NCCC5CCCN5C)n4Cc4ccccc43)cc2OC)c1 (centres unmarked) [Example 172, 10-[(2,3′-Dimethoxy[1,1′-biphenyl]-4-yl)carbonyl]-N-[2-(1-methyl-2-pyrrolidinyl)ethyl]-10,11-dihydro-5H-pyrrolo[2,1-c][1,4]benzodiazepine-3-carboxamide] | 11
5 | CN(C)CCN1CCN(C(=O)c2ccc3n2Cc2ccccc2N(C(=O)c2ccc(-c4cccc5ccccc45)cc2Cl)C3)CC1 [Example 205, {10-[2-Chloro-4-(1-naphthyl)benzoyl]-10,11-dihydro-5H-pyrrolo[2,1-c][1,4]benzodiazepin-3-yl}{4-[2-(dimethylamino)ethyl]-1-piperazinyl}methanone] | 18
6 | COc1cccc(-c2cc(OC)c(C(=O)N3Cc4ccc(C(=O)NCCC5CCCN5C)n4Cc4ccccc43)cc2Cl)c1 (centres unmarked) [Example 169, 10-[(6-Chloro-3,3′-dimethoxy[1,1′-biphenyl]-4-yl)carbonyl]-N-[2-(1-methyl-2-pyrrolidinyl)ethyl]-10,11-dihydro-5H-pyrrolo[2,1-c][1,4]benzodiazepine-3-carboxamide] | 5
7 | COc1ccccc1-c1ccc(C(=O)N2Cc3ccc(C(=O)N(C)C4CCN(C)C4)n3Cc3ccccc32)cc1 (centres unmarked) [Example 187, 10-[(2′-Methoxy[1,1′-biphenyl]-4-yl)carbonyl]-N-methyl-N-(1-methyl-3-pyrrolidinyl)-10,11-dihydro-5H-pyrrolo[2,1-c][1,4]benzodiazepine-3-carboxamide] | 31
8 | COc1cccc(-c2ccc(C(=O)N3Cc4ccc(C(=O)NCCN5CCCCC5)n4Cc4ccccc43)cc2OC)c1 [Example 159, 10-[(2,3′-Dimethoxy[1,1′-biphenyl]-4-yl)carbonyl]-N-[2-(1-piperidinyl)ethyl]-10,11-dihydro-5H-pyrrolo[2,1-c][1,4]benzodiazepine-3-carboxamide] | 16
9 | COc1cc(-c2ccccc2C)c(Cl)cc1C(=O)N1Cc2ccc(C(=O)NCCC3CCCN3C)n2Cc2ccccc21 (centres unmarked) [Example 168, 10-[(6-Chloro-3-methoxy-2′-methyl[1,1′-biphenyl]-4-yl)carbonyl]-N-[2-(1-methyl-2-pyrrolidinyl)ethyl]-10,11-dihydro-5H-pyrrolo[2,1-c][1,4]benzodiazepine-3-carboxamide] | 10
10 | COc1cc(C(=O)N2Cc3ccc(C(=O)NCCN4CCCCC4)n3Cc3ccccc32)ccc1-c1cccc2ccccc12 [Example 157, 10-[3-Methoxy-4-(1-naphthyl)benzoyl]-N-[2-(1-piperidinyl)ethyl]-10,11-dihydro-5H-pyrrolo[2,1-c][1,4]benzodiazepine-3-carboxamide] | 23
11 | Cc1ccccc1-c1ccc(C(=O)N2Cc3ccc(C(=O)N4CCN(CCN5CCOCC5)CC4)n3Cc3ccccc32)cc1 [Example 209, {10-[(2′-Methyl[1,1′-biphenyl]-4-yl)carbonyl]-10,11-dihydro-5H-pyrrolo[2,1-c][1,4]benzodiazepin-3-yl}{4-[2-(4-morpholinyl)ethyl]-1-piperazinyl}methanone] | 10
12 | COc1cc(C(=O)N2Cc3ccc(C(=O)NCCC4CCCN4C)n3Cc3ccccc32)ccc1-c1cccc2ccccc12 (centres unmarked) [Example 170, 10-[3-Methoxy-4-(1-naphthyl)benzoyl]-N-[2-(1-methyl-2-pyrrolidinyl)ethyl]-10,11-dihydro-5H-pyrrolo[2,1-c][1,4]benzodiazepine-3-carboxamide] | 27
13 | Cc1ccccc1-c1ccc(C(=O)N2Cc3ccc(C(=O)N(C)C4CCN(C)CC4)n3Cc3ccccc32)cc1 [Example 178, N-Methyl-10-[(2′-methyl[1,1′-biphenyl]-4-yl)carbonyl]-N-(1-methyl-4-piperidinyl)-10,11-dihydro-5H-pyrrolo[2,1-c][1,4]benzodiazepine-3-carboxamide] | 15
14 | COc1cc(C(=O)N2Cc3ccc(C(=O)N(C)C4CCN(C)C4)n3Cc3ccccc32)ccc1-c1cccc2ccccc12 (centres unmarked) [Example 192, 10-[3-Methoxy-4-(1-naphthyl)benzoyl]-N-methyl-N-(1-methyl-3-pyrrolidinyl)-10,11-dihydro-5H-pyrrolo[2,1-c][1,4]benzodiazepine-3-carboxamide] | 28
15 | Cc1cc(C(=O)N2Cc3ccc(C(=O)N(C)C4CCN(C)CC4)n3Cc3ccccc32)ccc1-c1ccccc1C(F)(F)F [Example 184, N-Methyl-N-(1-methyl-4-piperidinyl)-10-{[2-methyl-2′-(trifluoromethyl)[1,1′-biphenyl]-4-yl]carbonyl}-10,11-dihydro-5H-pyrrolo[2,1-c][1,4]benzodiazepine-3-carboxamide] | 9

More lines, now with the values ahead:

Row | inhibition at 0.1 µM [%] | SMILES
16 | -5 | C=CCN1CCN(C(=O)c2ccc3n2Cc2ccccc2N(C(=O)c2ccc(-c4cccc5ccccc45)c(OC)c2)C3)CC1 [Example 231, (4-Allyl-1-piperazinyl){10-[3-methoxy-4-(1-naphthyl)benzoyl]-10,11-dihydro-5H -pyrrolo[2,1-c][1,4]benzodiazepin-3-yl}methanone]
17 | 6 | COc1ccccc1-c1ccc(C(=O)N2Cc3ccc(C(=O)N4CCN(CCN(C)C)CC4)n3Cc3ccccc32)cc1OC [Example 204, {10-[(2,2′-Dimethoxy[1,1′-biphenyl]-4-yl)carbonyl]-10,11-dihydro-5H-pyrrolo[2,1-c][1,4]benzodiazepin-3-yl}{4-[2-(dimethylamino)ethyl]-1-piperazinyl}methanone]
18 | 20 | COc1ccccc1-c1ccc(C(=O)N2Cc3ccc(C(=O)NCCC4CCCN4C)n3Cc3ccccc32)cc1C (centres unmarked) [Example 162, 10-[(2′-Methoxy-2-methyl[1,1′-biphenyl]-4-yl)carbonyl]-N-[2-(1-methyl-2-pyrrolidinyl)ethyl]-10,11-dihydro-5H-pyrrolo[2,1-c][1,4]benzodiazepine-3-carboxamide]
19 | 7 | C=CCN1CCN(C(=O)c2ccc3n2Cc2ccccc2N(C(=O)c2ccc(-c4ccccc4C)cc2)C3)CC1 [Example 224, (4-Allyl-1-piperazinyl){10-[(2′-methyl[1,1′-biphenyl]-4-yl)carbonyl]-10,11-dihydro-5H -pyrrolo[2,1-c][1,4]benzodiazepin-3-yl}methanone]
20 | 28 | COc1cc(C(=O)N2Cc3ccc(C(=O)N4CCN(CCN(C)C)CC4)n3Cc3ccccc32)ccc1-c1cccc2ccccc12 [Example 203, {4-[2-(Dimethylamino)ethyl]-1-piperazinyl}{10-[3-methoxy-4-(1-naphthyl)benzoyl]-10,11-dihydro-5H-pyrrolo[2,1-c][1,4]benzodiazepin-3-yl}methanone]
21 | 17 | COc1ccccc1-c1ccc(C(=O)N2Cc3ccc(C(=O)N(C)C4CCN(C)CC4)n3Cc3ccccc32)cc1C [Example 175, 10-[(2′-Methoxy-2-methyl[1,1′-biphenyl]-4-yl)carbonyl]-N-methyl-N-(1-methyl-4-piperidinyl)-10,11-dihydro-5H-pyrrolo[2,1-c][1,4]benzodiazepine-3-carboxamide]
22 | 2 | C=CCN1CCN(C(=O)c2ccc3n2Cc2ccccc2N(C(=O)c2ccc(-c4ccccc4OC)c(OC)c2)C3)CC1 [Example 227, (4-Allyl-1-piperazinyl){10-[(2,2′-dimethoxy[1,1′-biphenyl]-4-yl)carbonyl]-10,11-dihydro-5H -pyrrolo[2,1-c][1,4]benzodiazepin-3-yl}methanone]
23 | 13 | Cc1cc(C(=O)N2Cc3ccc(C(=O)N4CCN(C(=O)OC(C)(C)C)CC4)n3Cc3ccccc32)ccc1-c1ccccc1C(F)(F)F [Example 6, 4-[[10,11-Dihydro-10-[[2-methyl-2′-trifluoromethyl[1,1′-biphenyl]-4-yl]carbonyl]-5H-pyrrolo[2,1-c][1,4]benzodiazepin-3-yl]carbonyl]-1-piperazine-carboxylic acid, tert-butyl ester]
24 | -3 | COc1cc(C(=O)N2Cc3ccc(C(=O)N4CCN(C(C)C)CC4)n3Cc3ccccc32)ccc1-c1ccccc1C [Example 237, (4-isopropyl-1-piperazinyl){10-[(2-methoxy-2′-methyl[1,1′-biphenyl]-4-yl)carbonyl]-10,11-dihydro-5H-pyrrolo[2,1-c][1,4]benzodiazepin-3-yl}methanone]
25 | 27 | COc1ccccc1-c1ccc(C(=O)N2Cc3ccc(C(=O)N(C)C4CCN(C)C4)n3Cc3ccccc32)cc1C (centres unmarked) [Example 185, 10-[(2′-Methoxy-2-methyl[1,1′-biphenyl]-4-yl)carbonyl]-N-methyl-N-(1-methyl-3-pyrrolidinyl)-10,11-dihydro-5H-pyrrolo[2,1-c][1,4]benzodiazepine-3-carboxamide]
26 | 4 | C=CCN1CCN(C(=O)c2ccc3n2Cc2ccccc2N(C(=O)c2ccc(-c4ccccc4C(F)(F)F)c(C)c2)C3)CC1 [Example 230, (4-Allyl-1-piperazinyl)(10-{[2-methyl-2′-(trifluoromethyl)[1,1′-biphenyl]-4-yl]carbonyl}-10,11-dihydro-5H-pyrrolo[2,1-c][1,4]benzodiazepin-3-yl)methanone]
